Experimental findings from ChEMBL document CHEMBL4376817, “Drug Discovery Targeting Anaplastic Lymphoma Kinase (ALK)” (J Med Chem, 2019) are described below.

For series [1], the target named is T1, ALK tyrosine kinase receptor (Homo sapiens, UniProt Q9UM73).
Series [2] relates to IMR-32. Description: Cytotoxicity against human IMR32 cells. In kind it is functional, cell-based.
Series [3] has as its system SH-SY5Y. Kind of series: Cytotoxicity against human SH-SY5Y cells. It is filed as functional, cell-based.
A short description of series [4]: physchem. The following applies: octanol/water.
Series [5] relates to NCI-H3122. Description: cells. Particulars: Homo sapiens.
The target of series [6] is Hepatocyte growth factor receptor (Homo sapiens, UniProt P08581). Description: Inhibition of c-MET (unknown origin) by kinome scan-based assay.
Hepatocyte growth factor receptor, sequence (P08581 whole entry): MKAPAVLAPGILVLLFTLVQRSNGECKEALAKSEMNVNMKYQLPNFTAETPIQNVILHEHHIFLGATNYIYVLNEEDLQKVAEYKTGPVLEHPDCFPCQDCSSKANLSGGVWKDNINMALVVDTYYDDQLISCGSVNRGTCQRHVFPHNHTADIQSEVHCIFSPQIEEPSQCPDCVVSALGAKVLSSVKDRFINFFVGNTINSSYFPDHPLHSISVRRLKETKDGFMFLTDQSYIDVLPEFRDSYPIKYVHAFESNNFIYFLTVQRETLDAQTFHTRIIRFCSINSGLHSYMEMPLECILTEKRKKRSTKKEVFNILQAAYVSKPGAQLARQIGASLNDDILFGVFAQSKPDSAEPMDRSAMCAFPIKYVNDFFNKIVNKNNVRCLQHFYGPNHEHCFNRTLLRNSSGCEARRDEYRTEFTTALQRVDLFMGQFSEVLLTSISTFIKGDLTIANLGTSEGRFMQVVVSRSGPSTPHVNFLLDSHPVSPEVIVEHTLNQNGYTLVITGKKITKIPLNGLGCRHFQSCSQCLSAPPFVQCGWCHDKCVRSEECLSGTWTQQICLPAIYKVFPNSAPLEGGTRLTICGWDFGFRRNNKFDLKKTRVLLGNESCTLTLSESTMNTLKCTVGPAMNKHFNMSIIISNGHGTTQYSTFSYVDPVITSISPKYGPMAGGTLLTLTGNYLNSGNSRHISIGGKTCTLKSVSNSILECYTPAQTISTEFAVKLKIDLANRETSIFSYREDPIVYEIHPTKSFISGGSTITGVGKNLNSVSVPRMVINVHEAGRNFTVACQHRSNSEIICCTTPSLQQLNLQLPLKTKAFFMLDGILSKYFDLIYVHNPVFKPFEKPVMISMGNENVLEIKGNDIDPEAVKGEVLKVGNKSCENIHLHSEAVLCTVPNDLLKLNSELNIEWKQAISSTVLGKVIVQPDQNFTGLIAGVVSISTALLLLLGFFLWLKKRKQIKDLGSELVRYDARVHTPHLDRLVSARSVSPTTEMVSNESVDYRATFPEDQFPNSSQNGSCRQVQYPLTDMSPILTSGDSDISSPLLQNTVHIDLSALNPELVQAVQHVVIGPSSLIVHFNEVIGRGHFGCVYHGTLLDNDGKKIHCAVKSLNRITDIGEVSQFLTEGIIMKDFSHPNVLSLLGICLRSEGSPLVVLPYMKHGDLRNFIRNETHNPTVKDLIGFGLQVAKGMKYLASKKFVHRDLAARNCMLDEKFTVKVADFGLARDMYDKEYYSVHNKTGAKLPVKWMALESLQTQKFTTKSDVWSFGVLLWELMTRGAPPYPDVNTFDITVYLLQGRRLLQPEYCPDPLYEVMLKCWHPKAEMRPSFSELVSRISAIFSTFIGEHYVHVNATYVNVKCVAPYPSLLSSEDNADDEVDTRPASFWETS
Series [7] concerns NCI-H3122. Kind of series: Cytotoxicity against human NCI-H3122 cells harboring EML4-ALK E13;A20 mutant incubated for 72 hrs by Cell titer blue assay. The following applies: NCI-H3122, 72 h. In kind it is functional, cell-based. On the technique in general: The colour change of resazurin is a common sign of viable cells or microbes.
Series [8] concerns NCI-H3122. Description: Potency index, ratio of crizotinib IC50 to test compound IC50 for cytotoxicity against human NCI-H3122 cells harboring EML4-ALK E13;A20 mutant. It is filed as functional.
The target of series [9] is T1, ALK tyrosine kinase receptor. The source holds these as a separate data set.
For series [10], the target named is Vascular endothelial growth factor receptor 2 (Homo sapiens, UniProt P35968).
Vascular endothelial growth factor receptor 2, sequence (P35968 whole entry): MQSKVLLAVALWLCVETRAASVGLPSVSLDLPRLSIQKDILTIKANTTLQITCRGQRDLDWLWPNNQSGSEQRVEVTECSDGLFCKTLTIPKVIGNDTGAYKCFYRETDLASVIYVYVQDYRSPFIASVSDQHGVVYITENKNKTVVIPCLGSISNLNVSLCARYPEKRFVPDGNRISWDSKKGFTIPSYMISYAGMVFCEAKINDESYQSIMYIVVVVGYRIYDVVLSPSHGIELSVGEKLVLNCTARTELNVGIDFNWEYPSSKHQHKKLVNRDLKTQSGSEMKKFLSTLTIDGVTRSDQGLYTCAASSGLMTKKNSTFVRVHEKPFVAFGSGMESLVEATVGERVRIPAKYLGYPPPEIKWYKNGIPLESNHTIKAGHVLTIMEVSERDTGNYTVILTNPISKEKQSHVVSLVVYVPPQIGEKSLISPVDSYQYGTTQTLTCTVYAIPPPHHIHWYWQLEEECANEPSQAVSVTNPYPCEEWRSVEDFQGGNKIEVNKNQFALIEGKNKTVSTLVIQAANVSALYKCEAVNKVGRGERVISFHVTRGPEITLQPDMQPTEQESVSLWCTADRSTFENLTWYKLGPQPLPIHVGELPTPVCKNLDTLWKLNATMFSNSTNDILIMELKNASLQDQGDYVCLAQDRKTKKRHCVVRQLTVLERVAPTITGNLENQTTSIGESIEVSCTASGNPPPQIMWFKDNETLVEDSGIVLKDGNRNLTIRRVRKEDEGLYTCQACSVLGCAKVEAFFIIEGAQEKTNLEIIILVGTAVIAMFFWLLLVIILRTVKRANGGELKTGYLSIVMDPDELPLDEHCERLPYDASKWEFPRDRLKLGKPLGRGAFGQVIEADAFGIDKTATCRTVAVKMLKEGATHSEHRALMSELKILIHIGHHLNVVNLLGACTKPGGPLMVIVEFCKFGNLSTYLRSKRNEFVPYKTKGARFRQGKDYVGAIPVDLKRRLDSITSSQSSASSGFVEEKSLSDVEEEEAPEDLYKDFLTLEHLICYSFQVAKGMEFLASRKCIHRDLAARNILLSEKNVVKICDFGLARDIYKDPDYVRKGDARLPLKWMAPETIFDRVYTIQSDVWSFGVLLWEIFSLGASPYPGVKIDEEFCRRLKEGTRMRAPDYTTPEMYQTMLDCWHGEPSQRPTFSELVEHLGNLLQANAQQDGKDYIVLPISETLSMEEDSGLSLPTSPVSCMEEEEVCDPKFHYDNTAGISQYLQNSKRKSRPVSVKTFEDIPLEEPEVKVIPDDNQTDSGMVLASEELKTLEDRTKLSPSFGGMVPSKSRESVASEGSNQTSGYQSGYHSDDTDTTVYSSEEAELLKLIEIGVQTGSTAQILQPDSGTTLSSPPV

T1 sequence (Q9UM73 whole entry): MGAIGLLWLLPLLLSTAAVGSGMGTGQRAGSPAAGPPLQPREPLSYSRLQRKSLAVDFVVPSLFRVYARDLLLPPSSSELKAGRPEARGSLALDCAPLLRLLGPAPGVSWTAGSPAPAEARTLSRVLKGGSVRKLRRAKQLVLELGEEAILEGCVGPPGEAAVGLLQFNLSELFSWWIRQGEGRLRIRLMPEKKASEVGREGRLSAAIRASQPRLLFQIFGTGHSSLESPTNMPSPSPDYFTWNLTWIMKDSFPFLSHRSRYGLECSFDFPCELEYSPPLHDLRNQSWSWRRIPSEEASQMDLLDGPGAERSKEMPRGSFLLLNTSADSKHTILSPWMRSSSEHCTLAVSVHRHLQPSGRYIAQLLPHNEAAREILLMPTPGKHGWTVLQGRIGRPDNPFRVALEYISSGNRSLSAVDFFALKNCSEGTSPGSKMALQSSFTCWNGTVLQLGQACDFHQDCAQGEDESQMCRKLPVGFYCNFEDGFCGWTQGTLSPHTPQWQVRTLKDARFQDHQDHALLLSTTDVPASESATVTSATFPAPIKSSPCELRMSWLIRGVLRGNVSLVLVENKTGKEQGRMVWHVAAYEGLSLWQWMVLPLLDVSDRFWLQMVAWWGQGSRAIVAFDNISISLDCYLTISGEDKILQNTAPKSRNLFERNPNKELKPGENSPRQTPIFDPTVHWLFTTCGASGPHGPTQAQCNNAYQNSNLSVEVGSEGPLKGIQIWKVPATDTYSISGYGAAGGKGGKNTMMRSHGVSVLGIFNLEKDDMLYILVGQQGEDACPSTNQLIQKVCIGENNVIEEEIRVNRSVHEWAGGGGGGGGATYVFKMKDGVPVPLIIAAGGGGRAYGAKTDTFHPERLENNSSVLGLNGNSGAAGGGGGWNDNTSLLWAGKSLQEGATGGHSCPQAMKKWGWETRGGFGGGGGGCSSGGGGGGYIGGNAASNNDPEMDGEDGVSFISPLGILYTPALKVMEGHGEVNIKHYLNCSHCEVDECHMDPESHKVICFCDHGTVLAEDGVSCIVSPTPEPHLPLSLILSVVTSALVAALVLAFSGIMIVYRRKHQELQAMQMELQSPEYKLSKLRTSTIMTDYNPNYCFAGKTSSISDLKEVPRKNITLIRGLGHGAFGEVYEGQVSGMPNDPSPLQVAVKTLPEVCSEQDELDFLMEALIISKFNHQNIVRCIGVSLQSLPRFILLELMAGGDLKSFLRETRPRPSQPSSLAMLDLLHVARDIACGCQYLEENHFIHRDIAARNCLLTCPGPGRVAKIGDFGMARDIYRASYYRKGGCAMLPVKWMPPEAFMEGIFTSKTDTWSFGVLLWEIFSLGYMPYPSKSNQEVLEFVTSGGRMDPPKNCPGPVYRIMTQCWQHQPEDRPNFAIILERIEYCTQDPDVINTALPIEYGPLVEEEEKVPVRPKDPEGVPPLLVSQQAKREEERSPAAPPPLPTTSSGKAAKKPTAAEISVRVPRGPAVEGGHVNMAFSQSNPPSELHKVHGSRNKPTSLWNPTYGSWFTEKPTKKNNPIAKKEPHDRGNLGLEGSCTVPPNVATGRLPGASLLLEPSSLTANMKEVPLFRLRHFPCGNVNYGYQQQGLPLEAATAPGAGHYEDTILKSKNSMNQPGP

As usually defined, the Ki is a dissociation constant, usually derived from enzyme kinetics or from competition with a known ligand. Low readings indicate higher affinity, high ones lower affinity. One may read the IC50 as the concentration that inhibits the measured activity by half. The low end stands for greater potency in that assay, the high end for weaker potency in that assay. In [1], `COc1cc(N2CCC(N)CC2)ccc1Nc1ncc(Cl)c(-c2c[nH]c3ccccc23)n1` yielded an inhibitory constant (Ki) of 0.75 nM. Moreover, the IC50 came out at 2.8 nM in series [2] and 1.7 nM in [3].
As usually defined, the logD is the decadic logarithm of the distribution of all forms, ionised or not, between an organic phase and buffer at a given pH. A high value points to a more lipophilic compound. Regarding `Cc1nn(C)c2c1Cc1cnc(N)c(c1)O[C@H](C)c1cc(F)ccc1C(=O)N(C)C2`, the logD in [4] turned out to be 2.2.
On to `CCc1cc2c(cc1N1CCC(N3CCOCC3)CC1)C(C)(C)c1[nH]c3cc(C#N)ccc3c1C2=O` [ALECTINIB], for which the IC50 in series [5] is 9 nM.
With `C[C@@H]1CN(C(=O)c2ccc(NC(=O)c3cc(O[C@H](C)c4c(Cl)ccc(F)c4Cl)c(N)nn3)cc2)C[C@H](C)N1` [ENSARTINIB], the figures for the IC50 in [6], in [7] and in series [9] were 0.74 nM, 15 nM and less than 0.4 nM, respectively. Also, in [8], the “Ratio IC50” value is reported as 10.
The molecule `CCc1cc2c(cc1N1CCN(C3COC3)CC1)C(C)(C)c1[nH]c3cc(C#N)ccc3c1C2=O` displayed an IC50 in [10] greater than 5000 nM.
